The values below are quoted from earlier work in patent publication US6432966B1, “Antiviral combinations” (SmithKline Beecham Corporation, priority 1999, dated 2002).

Data set [1] deals with HBV.
Data set [2] deals with HBV. As to conditions: in vitro.
The test system of data set [3] is Hepatitis B virus. The note with it: oral, woodchucks.

As to `Nc1ccn([C@@H]2CS[C@H](CO)O2)c(=O)n1` (relative stereo) [lamivudine, (2R,cis)-4-amino-1-(2-hydroxymethyl-1,3-oxathiolan-5-yl)-pyrimidin-2-one], in data set [1] (through to the end of the second year), the “patients maintaining undetectable levels of virus” value is 52%. Besides, in data set [1] (two year study), the “levels of viral replication in patients” value is given as “most patients showed substantially reduced levels of viral replication”.

`C=C1[C@H](CO)[C@@H](O)C[C@@H]1n1cnc2c(=O)[nH]c(N)nc21` [BMS-200475]: the anti-HBV activity entry in data set [2] is “anti-HBV activity in vitro”. Also, in data set [3], the “efficacy against Hepatitis B virus” value is on record as “effective against Hepatitis B virus in woodchucks”.
